pEC50: −log10 of the molar value. Counter-ions that a name gives are not always drawn.
Tested on: human breast cancer cell line T-47D
Test: Caspase cascade activation (DEVD-R110 fluorogenic substrate) in T-47D cells
Assay type: cell-based
Settings: Homo sapiens, T47D, 24 h, T47D cells, 24 h; read-out: Caspase activation Potency EC50 T47D (24 h)
Protocol: (§1) Human breast cancer cell line T-47D, human lung cancer cell line H1299, human hepatocellular carcinoma cell line SNU398, human colon carcinoma cell line HCT116 were grown according to media component mixtures designated by American Type Culture Collection+10% FCS (Invitrogen Corporation), in a 5% CO2-95% humidity incubator at 37° C. T-47D and H1299 cells were maintained at a cell density between 50 and 80% confluency at a cell density of 0.1 to 0.6×10^6 cells/mL. Cells were harvested at 600×g and resuspended at 0.65×10^6 cells/mL into appropriate media+10% FCS. An aliquot of 22.5 μL of cells was added to a well of a 384-well microtiter plate containing 2.5 μL of a 10% DMSO in RPMI-1640 media solution containing 0.16 to 100 μM of N-(2,5-dimethoxyphenyl)-2-methylthieno[3,2-d]pyrimidin-4-amine or other test compound (0.016 to 10 μM final). An aliquot of 22.5 μL of cells was added to a well of a 384-well microtiter plate containing 2.5 μL of a 10% DMSO in RPMI-1640 media solution without test compound as the control sample. The samples were mixed by agitation and then incubated at 37° C. for 24 h or 48 h in a 5% CO2-95% humidity incubator. After incubation, the samples were removed from the incubator and 25 μL of a solution containing 14 μM of N-(Ac-DEVD)-N′-ethoxycarbonyl-R110 (SEQ ID NO.:1) fluorogenic substrate (Cytovia, Inc.; WO99/18856), 20% sucrose (Sigma), 20 mM DTT (Sigma), 200 mM NaCl (Sigma), 40 mM Na PIPES buffer pH 7.2 (Sigma), and 500 μg/mL lysolecithin (Calbiochem) was added. The samples were mixed by agitation and incubated at room temperature. Using a fluorescent plate reader (Model SPECTRAfluor Plus, Tecan), an initial reading (T=0) was made approximately 1-2 min after addition of the substrate solution, employing excitation at 485 nm and emission at 530 nm, to determine the background fluorescence of the control sample. After the 3 h incubation, the samples were read for fluorescence as above (T=3 h).
(§2) The Relative Fluorescence Unit values (RFU) were used to calculate the sample readings as follows: RFU(T=3h)−Control RFU(T=O)=Net RFU(T=3h)
(§3) The activity of caspase cascade activation was determined by the ratio of the net RFU value for N-(2,5-dimethoxyphenyl)-2-methylthieno[3,2-d]pyrimidin-4-amine or other test compound to that of control samples. The EC50 (nM) was determined by a sigmoidal dose-response calculation (Prism 3.0, GraphPad Software Inc.).

Row | pEC50 | Structure (SMILES)
1 | < 5.00 | COc1ccc(OC)c(Nc2nc(C)nc3scc(C)c23)c1 [Example 7, N-(2,5-Dimethoxyphenyl)-2,5-dimethylthieno[2,3-d]pyrimidin-4-amine hydrochloride]
2 | < 5.00 | COc1ccc(OC)c(Nc2nc(C)nc3sc(C)c(C)c23)c1 [Example 29, N-(2,5-Dimethoxy-phenyl)-2,5,6-trimethylthieno[2,3-d]pyrimidin-4-amine hydrochloride]
3 | < 5.00 | COc1ccc(C(=O)O)cc1Nc1ncnc2ccsc12 [Example 41, 4-Methoxy-3-(thieno[3,2-d]pyrimidin-4-ylamino)-benzoic acid]

Same assay, conditions: Homo sapiens, T47D, 48 h, T-47D cells, 48 h; read-out: Caspase activation Potency EC50 T-47D (48 h)

Row | pEC50 | Structure (SMILES)
4 | < 5.00 | COc1ccc(OC)c(Nc2nc(C)nc3scc(C)c23)c1 [Example 7, N-(2,5-Dimethoxyphenyl)-2,5-dimethylthieno[2,3-d]pyrimidin-4-amine hydrochloride]
5 | < 5.00 | COc1ccc(OC)c(Nc2nc(C)nc3sc(C)c(C)c23)c1 [Example 29, N-(2,5-Dimethoxy-phenyl)-2,5,6-trimethylthieno[2,3-d]pyrimidin-4-amine hydrochloride]
6 | < 5.00 | COc1ccc(C(=O)O)cc1Nc1ncnc2ccsc12 [Example 41, 4-Methoxy-3-(thieno[3,2-d]pyrimidin-4-ylamino)-benzoic acid]

Tested on: human lung cancer cell line H1299
Test: Caspase cascade activation in H1299 cells
Assay type: cell-based
Settings: NCI-H1299, 24 h, read-out: Caspase activation Potency EC50 H1299 (24 h)
Protocol: as §1, §2, §3

Row | pEC50 | Structure (SMILES)
7 | < 5.00 | COc1ccc(OC)c(Nc2nc(C)nc3scc(C)c23)c1 [Example 7, N-(2,5-Dimethoxyphenyl)-2,5-dimethylthieno[2,3-d]pyrimidin-4-amine hydrochloride]
8 | < 5.00 | COc1ccc(OC)c(Nc2nc(C)nc3sc(C)c(C)c23)c1 [Example 29, N-(2,5-Dimethoxy-phenyl)-2,5,6-trimethylthieno[2,3-d]pyrimidin-4-amine hydrochloride]
9 | < 5.00 | COc1ccc(C(=O)O)cc1Nc1ncnc2ccsc12 [Example 41, 4-Methoxy-3-(thieno[3,2-d]pyrimidin-4-ylamino)-benzoic acid]

Tested on: human hepatocellular carcinoma cell line SNU398
Test: Caspase cascade activation in SNU398 cells
Assay type: cell-based
Settings: Homo sapiens, SNU-398, 48 h, read-out: Caspase activation Potency EC50 SNU398 (48 h)
Protocol: as §1, §2, §3

Row | pEC50 | Structure (SMILES)
10 | < 5.00 | COc1ccc(OC)c(Nc2nc(C)nc3scc(C)c23)c1 [Example 7, N-(2,5-Dimethoxyphenyl)-2,5-dimethylthieno[2,3-d]pyrimidin-4-amine hydrochloride]
11 | < 5.00 | COc1ccc(OC)c(Nc2nc(C)nc3sc(C)c(C)c23)c1 [Example 29, N-(2,5-Dimethoxy-phenyl)-2,5,6-trimethylthieno[2,3-d]pyrimidin-4-amine hydrochloride]
12 | < 5.00 | COc1ccc(C(=O)O)cc1Nc1ncnc2ccsc12 [Example 41, 4-Methoxy-3-(thieno[3,2-d]pyrimidin-4-ylamino)-benzoic acid]

Tested on: human colon carcinoma cell line HCT116
Test: Caspase cascade activation in HCT116 cells
Assay type: cell-based
Settings: Homo sapiens, HCT-116, 48 h, read-out: Caspase activation Potency EC50 HCT116 (48 h)
Protocol: as §1, §2, §3

Row | pEC50 | Structure (SMILES)
13 | < 5.00 | COc1ccc(OC)c(Nc2nc(C)nc3scc(C)c23)c1 [Example 7, N-(2,5-Dimethoxyphenyl)-2,5-dimethylthieno[2,3-d]pyrimidin-4-amine hydrochloride]
14 | < 5.00 | COc1ccc(OC)c(Nc2nc(C)nc3sc(C)c(C)c23)c1 [Example 29, N-(2,5-Dimethoxy-phenyl)-2,5,6-trimethylthieno[2,3-d]pyrimidin-4-amine hydrochloride]
15 | < 5.00 | COc1ccc(C(=O)O)cc1Nc1ncnc2ccsc12 [Example 41, 4-Methoxy-3-(thieno[3,2-d]pyrimidin-4-ylamino)-benzoic acid]
